target: T1, α4β1 integrin (Homo sapiens, UniProt P05556+P13612); experiment: Adhesion of calcein-labeled Ramos cells to CS1 (fibronectin) peptide conjugated ovalbumin; format: cell-based; details: Table 2; Ramos cell adhesion to CS1 conjugated ovalbumin, 30 minutes at 37° C.
T1 construct: endogenous in cells; host or cells: Ramos cells
How it was run: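 Calcein AM-labelled Ramos cells (2.5×10^5/well) with compound, up to 100 μM, added to plates coated with CS1 peptide–ovalbumin (0.5 μg/ml) and blocked with 3% BSA. Binding buffer TBS pH 7.5 with 1 mM each MgCl2, CaCl2, MnCl2; 30 min, 37 °C. After washes, adherent cells lysed and read fluorometrically; […].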

T1 sequence (P13612 34-1032): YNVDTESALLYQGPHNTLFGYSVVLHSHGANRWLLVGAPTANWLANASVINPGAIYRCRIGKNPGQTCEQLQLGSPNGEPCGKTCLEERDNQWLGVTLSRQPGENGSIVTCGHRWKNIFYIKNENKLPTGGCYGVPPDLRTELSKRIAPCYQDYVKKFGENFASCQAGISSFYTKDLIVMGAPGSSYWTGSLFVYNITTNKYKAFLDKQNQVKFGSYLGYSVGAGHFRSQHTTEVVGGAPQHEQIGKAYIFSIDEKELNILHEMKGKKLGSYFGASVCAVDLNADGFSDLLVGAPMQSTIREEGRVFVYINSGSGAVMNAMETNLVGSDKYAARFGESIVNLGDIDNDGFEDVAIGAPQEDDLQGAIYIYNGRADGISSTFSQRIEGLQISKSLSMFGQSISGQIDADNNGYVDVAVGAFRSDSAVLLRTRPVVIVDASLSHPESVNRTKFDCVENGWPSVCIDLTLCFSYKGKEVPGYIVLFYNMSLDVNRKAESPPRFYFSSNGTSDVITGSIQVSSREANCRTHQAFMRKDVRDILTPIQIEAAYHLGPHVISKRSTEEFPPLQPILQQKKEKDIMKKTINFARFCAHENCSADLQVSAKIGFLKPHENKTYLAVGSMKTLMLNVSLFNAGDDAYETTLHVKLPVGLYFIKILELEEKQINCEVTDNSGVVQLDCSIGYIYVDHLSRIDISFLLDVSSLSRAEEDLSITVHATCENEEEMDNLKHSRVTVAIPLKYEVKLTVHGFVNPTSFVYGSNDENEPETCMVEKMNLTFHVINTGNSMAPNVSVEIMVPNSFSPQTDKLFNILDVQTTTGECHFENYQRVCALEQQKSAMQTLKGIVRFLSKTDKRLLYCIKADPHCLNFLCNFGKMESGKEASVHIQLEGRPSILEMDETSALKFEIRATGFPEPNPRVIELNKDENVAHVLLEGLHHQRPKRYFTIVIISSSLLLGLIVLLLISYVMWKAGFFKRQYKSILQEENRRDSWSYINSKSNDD
T1 sequence (P05556 21-798): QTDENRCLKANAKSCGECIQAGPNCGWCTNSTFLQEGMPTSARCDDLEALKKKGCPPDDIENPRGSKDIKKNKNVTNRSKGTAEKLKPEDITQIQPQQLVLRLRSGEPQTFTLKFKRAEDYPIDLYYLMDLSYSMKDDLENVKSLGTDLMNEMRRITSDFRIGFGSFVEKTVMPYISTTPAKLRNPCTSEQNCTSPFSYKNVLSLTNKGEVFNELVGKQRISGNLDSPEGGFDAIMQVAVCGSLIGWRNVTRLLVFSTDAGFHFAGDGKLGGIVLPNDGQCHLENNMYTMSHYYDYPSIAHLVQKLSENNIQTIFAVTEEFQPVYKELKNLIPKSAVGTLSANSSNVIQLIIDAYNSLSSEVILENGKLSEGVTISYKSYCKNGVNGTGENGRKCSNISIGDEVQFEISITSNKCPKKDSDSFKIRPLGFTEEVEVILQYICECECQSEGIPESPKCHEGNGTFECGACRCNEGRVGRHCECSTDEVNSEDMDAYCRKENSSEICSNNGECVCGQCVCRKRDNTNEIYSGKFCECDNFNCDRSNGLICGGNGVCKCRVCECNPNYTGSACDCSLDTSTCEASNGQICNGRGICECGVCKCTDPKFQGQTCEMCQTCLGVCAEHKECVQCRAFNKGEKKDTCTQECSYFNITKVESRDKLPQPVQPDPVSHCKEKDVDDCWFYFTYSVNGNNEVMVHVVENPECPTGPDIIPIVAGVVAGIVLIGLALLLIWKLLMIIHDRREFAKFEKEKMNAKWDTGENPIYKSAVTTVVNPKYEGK

SMILES	IC50 [nM]
CCCCN(C(=O)N[C@@H](CC(=O)O)c1ccc2c(c1)OCO2)c1cccn(Cc2cccs2)c1=O	20000
O=C(O)C[C@H](NC(=O)N[C@@H]1CCCN(Cc2cccs2)C1=O)c1ccc2c(c1)OCO2	2000

same assay, conditions: Table 3; Ramos cell adhesion to CS1 conjugated ovalbumin, 30 minutes at 37° C.

SMILES	IC50 [nM]
COc1cccc([C@H](CC(=O)O)NC(=O)Nc2c(O)ccn(Cc3ccccc3Cl)c2=O)c1 [(3S)-3-{[({1-[(2-chlorophenyl)methyl]-4-hydroxy-2-oxo-1,2-dihydro-3-pyridinyl}amino)carbonyl]amino}-3-[3-(methyloxy)phenyl]propanoic acid]	5
COc1cc(OC)cc([C@H](CC(=O)O)NC(=O)Nc2c(O)ccn(Cc3ccccc3Cl)c2=O)c1 [(3S)-3-[3,5-bis(methyloxy)phenyl]-3-{[({1-[(2-chlorophenyl)methyl]-4-hydroxy-2-oxo-1,2-dihydro-3-pyridinyl}amino)carbonyl]amino}propanoic acid]	3
Cc1ccc([C@H](CC(=O)O)NC(=O)Nc2c(NCc3cccnc3)ccn(Cc3ccccc3Cl)c2=O)cc1	20
COc1ccc([C@H](CC(=O)O)NC(=O)Nc2c(C)ccn(Cc3ccccc3Cl)c2=O)cc1C	15
Cc1ccc([C@H](CC(=O)O)NC(=O)Nc2c(Nc3ccccn3)ccn(Cc3ccccc3Cl)c2=O)cc1	15
CCCNc1ccn(Cc2ccccc2Cl)c(=O)c1NC(=O)N[C@@H](CC(=O)O)c1ccc(C)cc1 [(3S)-3-[({[1-[(2-chlorophenyl)methyl]-2-oxo-4-(propylamino)-1,2-dihydro-3-pyridinyl]amino}carbonyl)amino]-3-(4-methylphenyl)propanoic acid]	10

same assay, conditions: Table 4; Ramos cell adhesion to CS1 conjugated ovalbumin, 30 minutes at 37° C.

SMILES	IC50 [nM]
O=C(O)C[C@H](NC(=O)Nc1cccn(Cc2ccccc2Cl)c1=O)c1ccccc1	100
Cc1ccc([C@H](CC(=O)O)NC(=O)Nc2cccn(Cc3ccccc3C(F)(F)F)c2=O)cc1	1000
CCOc1ccc([C@H](CC(=O)O)NC(=O)Nc2c(O)ccn(Cc3ccccc3Cl)c2=O)cc1	20
Cc1ccc([C@H](CC(=O)O)NC(=O)Nc2cccn(Cc3cccs3)c2=O)cc1	600
O=C(O)C[C@H](NC(=O)Nc1cccn(Cc2ccc(Cl)cc2)c1=O)c1ccc2c(c1)OCO2	3000
O=C(Nc1cccn(Cc2ccccc2Cl)c1=O)N[C@H](Cc1ccccc1)C(=O)O	50000
Cc1ccc([C@H](CC(=O)O)NC(=O)Nc2cccn(Cc3ccccc3C#N)c2=O)cc1	100
O=C(Nc1cccn(Cc2ccccc2Cl)c1=O)N[C@@H](C(=O)O)c1ccccc1	80000

same assay, conditions: Table 5; Ramos cell adhesion to CS1 conjugated ovalbumin; dose required to give 50% inhibition

SMILES	IC50 [nM]
COc1ccc(Cl)c(Cn2cccc(NC(=O)N[C@@H](CC(=O)O)c3ccc(C)cc3)c2=O)c1	90
Cc1ccc([C@H](CC(=O)O)NC(=O)Nc2cccn(Cc3ccccc3O)c2=O)cc1	200
O=C(O)C[C@H](NC(=O)Nc1c(O)ccn(Cc2ccccc2Cl)c1=O)c1cccc(OC(F)F)c1 [(3S)-3-[({[1-(2-chlorobenzyl)-4-hydroxy-2-oxo-1,2-dihydropyridin-3-yl]amino}carbonyl)amino]-3-[3-(difluoromethoxy)phenyl]propanoic acid]	6
Cc1ccc([C@H](CC(=O)O)NC(=O)Nc2c(O)ccn(Cc3ccccc3C#N)c2=O)cc1 [(3S)-3-[({[1-(2-cyanobenzyl)-4-hydroxy-2-oxo-1,2-dihydropyridin-3-yl]amino}carbonyl)amino]-3-(4-methylphenyl)propanoic acid]	9
COc1cccc(OC)c1Cn1ccc(O)c(NC(=O)N[C@@H](CC(=O)O)c2ccc(C)cc2)c1=O [(3S)-3-[({[1-(2,6-dimethoxybenzyl)-4-hydroxy-2-oxo-1,2-dihydropyridin-3-yl]amino}carbonyl)amino]-3-(4-methylphenyl)propanoic acid]	10
Cc1ccc([C@H](CC(=O)O)NC(=O)Nc2c(O)c(C)c(C)n(Cc3c(C)cccc3Cl)c2=O)cc1	30
COc1ccccc1Cn1ccc(O)c(NC(=O)N[C@@H](CC(=O)O)c2ccc(C)cc2)c1=O	80
Cc1ccc(C[C@H](CC(=O)O)NC(=O)Nc2c(O)ccn(Cc3ccccc3Cl)c2=O)cc1	150
CCOc1ccc([C@H](CC(=O)O)NC(=O)Nc2c(O)c(C)c(C)n(Cc3c(C)cccc3Cl)c2=O)cc1OCC	4
Cc1ccc([C@H](CC(=O)O)NC(=O)Nc2c(O)ccn(Cc3ccc(C(F)(F)F)cc3)c2=O)cc1	20
COc1ccc(Cl)c(Cn2ccc(O)c(NC(=O)N[C@@H](CC(=O)O)c3ccc(C)cc3)c2=O)c1	12
COc1cc(C)c([C@H](CC(=O)O)NC(=O)Nc2c(O)ccn(Cc3ccccc3Cl)c2=O)cc1C	80
CCCc1cn(Cc2ccccc2Cl)c(=O)c(NC(=O)N[C@@H](CC(=O)O)c2ccc(C)cc2)c1O [(3S)-3-[({[1-(2-chlorobenzyl)-4-hydroxy-2-oxo-5-propyl-1,2-dihydropyridin-3-yl]amino}carbonyl)amino]-3-(4-methylphenyl)propanoic acid]	20
CSc1ccccc1Cn1ccc(O)c(NC(=O)N[C@@H](CC(=O)O)c2ccc(C)cc2)c1=O	20
Cc1ccc([C@H](CC(=O)O)NC(=O)Nc2c(O)ccn(Cc3ccccc3C(F)(F)F)c2=O)cc1	20
Cc1ccc([C@H](CC(=O)O)NC(=O)Nc2cccn(Cc3cccc(C(C)(C)C)c3O)c2=O)cc1	4000
COc1cccc(Cl)c1Cn1ccc(O)c(NC(=O)N[C@@H](CC(=O)O)c2cccc(C)c2)c1=O [(3S)-3-[({[1-(2-chloro-6-methoxybenzyl)-4-hydroxy-2-oxo-1,2-dihydropyridin-3-yl]amino}carbonyl)amino]-3-(3-methylphenyl)propanoic acid]	5
O=C(O)C[C@H](NC(=O)Nc1c(O)ccn(Cc2ccccc2Cl)c1=O)c1ccc(F)c(C(F)(F)F)c1	25
Cc1ccc([C@H](CC(=O)O)NC(=O)Nc2c(O)ccn(Cc3ccc(Cl)c(Cl)c3)c2=O)cc1	45

same assay, conditions: Table 6; Ramos cell adhesion to CS1 conjugated ovalbumin, 30 minutes at 37° C.

SMILES	IC50 [nM]
O=C(O)C[C@H](NC(=O)Nc1c(O)c2c(n(Cc3ccccc3Cl)c1=O)CCC2)c1cccc(OCC(F)(F)F)c1	30
Cc1ccc([C@H](CC(=O)O)NC(=O)Nc2c(O)c(C)cn([C@@H](C)c3ccccc3)c2=O)cc1	1500
Cn1ccc2cc([C@H](CC(=O)O)NC(=O)Nc3c(O)ccn(Cc4ccccc4Cl)c3=O)ccc21	3

same assay, conditions: Table 7; Ramos cell adhesion to CS1 conjugated ovalbumin; dose required to give 50% inhibition

SMILES	IC50 [nM]
CCOc1cccc(Cl)c1Cn1cc(C)c(O)c(NC(=O)N[C@@H](CC(=O)O)c2ccc3c(c2)CCO3)c1=O [(3S)-3-[({[1-(2-chloro-6-ethoxybenzyl)-4-hydroxy-5-methyl-2-oxo-1,2-dihydropyridin-3-yl]amino}carbonyl)amino]-3-(2,3-dihydro-1-benzofuran-5-yl)propanoic acid]	2
CCOc1cccc(Cl)c1Cn1c(C)c(CC)c(O)c(NC(=O)N[C@@H](CC(=O)O)c2ccc(C)cc2)c1=O	4
Cc1ccccc1-c1cccc([C@H](CC(=O)O)NC(=O)Nc2c(O)c(C)cn(Cc3ccccc3Cl)c2=O)c1	20
O=C(O)C[C@H](NC(=O)Nc1c(O)c2c(n(Cc3ccccc3Cl)c1=O)CCC2)c1cccc(OC2CCCC2)c1	7
CC(C)Cc1cccc([C@H](CC(=O)O)NC(=O)Nc2c(O)c3c(n(Cc4ccccc4Cl)c2=O)CCC3)c1	15
Cc1cccc(Cl)c1Cn1c2c(c(O)c(NC(=O)N[C@@H](CC(=O)O)c3ccccc3)c1=O)CCC2	17
COc1ccc2cc([C@H](CC(=O)O)NC(=O)Nc3c(O)c4c(n(Cc5ccccc5Cl)c3=O)CCC4)ccc2c1	3
CCCOc1cccc([C@H](CC(=O)O)NC(=O)Nc2c(O)c3c(n(Cc4c(Cl)cccc4OCC)c2=O)CCC3)c1 [(3S)-3-[({[1-(2-chloro-6-ethoxybenzyl)-4-hydroxy-2-oxo-2,5,6,7-tetrahydro-1H-cyclopenta[b]pyridin-3-yl]amino}carbonyl)amino]-3-(3-propoxyphenyl)propanoic acid]	3
O=C(O)C[C@H](NC(=O)Nc1c(O)c2c(n(Cc3ccccc3Cl)c1=O)CCC2)c1cccc(OC2CCC2)c1	17
Cc1cn(Cc2ccccc2Cl)c(=O)c(NC(=O)N[C@@H](CC(=O)O)c2ccc(OC3CC3)cc2)c1O	6
Cc1ccc([C@H](Cc2nnn[nH]2)NC(=O)Nc2c(O)c(C)cn(Cc3ccccc3Cl)c2=O)cc1	6000
CCOc1cccc(Cl)c1Cn1cc(C)c(O)c(NC(=O)N[C@@H](CC(=O)O)c2ccc3cc(OC)ccc3c2)c1=O [(3S)-3-[({[1-(2-chloro-6-ethoxybenzyl)-4-hydroxy-5-methyl-2-oxo-1,2-dihydropyridin-3-yl]amino}carbonyl)amino]-3-(6-methoxy-2-naphthyl)propanoic acid]	3
O=C(O)C[C@H](NC(=O)Nc1c(O)c2c(n(Cc3ccccc3Cl)c1=O)CCC2)c1cccc(OC2CC2)c1	4
CCc1ccc([C@H](CC(=O)O)NC(=O)Nc2c(O)c3c(n(Cc4c(C)cccc4Cl)c2=O)CCC3)cc1	15
CCOc1cccc(Cl)c1Cn1c2c(c(O)c(NC(=O)N[C@@H](CC(=O)O)c3cccc(OC(C)C)c3)c1=O)CCC2	4
CC(C)c1ccc([C@H](CC(=O)O)NC(=O)Nc2c(O)c3c(n(Cc4ccccc4Cl)c2=O)CCC3)cc1	17
CCOc1cccc(Cl)c1Cn1c2c(c(O)c(NC(=O)N[C@@H](CC(=O)O)c3ccccc3)c1=O)CCC2 [(3S)-3-[({[1-(2-chloro-6-ethoxybenzyl)-4-hydroxy-2-oxo-2,5,6,7-tetrahydro-1H-cyclopenta[b]pyridin-3-yl]amino}carbonyl)amino]-3-phenylpropanoic acid]	2
CCOc1cccc([C@H](CC(=O)O)NC(=O)Nc2c(O)c(Cl)cn(Cc3c(Cl)cccc3OCC)c2=O)c1	3
O=C(O)C[C@H](NC(=O)Nc1c(O)c2c(n(Cc3ccccc3Cl)c1=O)CCC2)c1cccc(O)c1	8
Cc1cn(Cc2ccccc2Cl)c(=O)c(NC(=O)N[C@@H](CC(=O)O)c2ccc3ccn(C)c3c2)c1O	4

— US6972296B2, “Carboxylic acid derivatives that inhibit the binding of integrins to their receptors” (Encysive Pharmaceuticals Inc., priority 1999, dated 2005)
